Laboratory results as given in patent publication US11840686B2, “Modulation of prekallikrein (PKK) expression” (Ionis Pharmaceuticals, Inc., priority 2013, dated 2023).
Values joined by “and” are separate entries in the source; they are usually repeats but may differ in a detail not shown here. Equal values may be shown once. Strand notation (5' to 3'): a small letter for the sugar, then the base; units joined by * are phosphorothioate-linked, units joined directly phosphodiester-linked; [ ] holds rarer units or linkages, { } end groups; capitals alone tell only the bases. e = 2'-O-(2-methoxyethyl) (MOE); k = constrained ethyl (cEt); [5mC] = 5-methylcytosine; d = 2'-deoxy (DNA)

Key:
human PKK mRNA [1] = assay: Antisense inhibition of human PKK mRNA in HepaRG cells, 1,000 nM, MOE/deoxy/cEt oligonucleotides (Example 3); type: cell-based
Outline: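 HepaRG cells at 20,000 per well electroporated with 1,000 nM 16-mer MOE/cEt/deoxy gapmers (phosphorothioate, 5-methylcytosine). After about 24 h, PKK mRNA measured by qRT-PCR with primer probe set RTS3454, normalized to RIBOGREEN total RNA. Reported as percent inhibition versus untreated cells.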

human PKK mRNA [2] = assay: Dose-dependent antisense inhibition of human PKK in HepaRG cells, 0.11-3.00 uM (Example 6); type: cell-based; details: for IC50: 0.11-3.00 μM; for percent inhibition of PKK mRNA, 1.00 μM / percent inhibition of PKK mRNA, 3.00 μM / percent inhibition of PKK mRNA, 0.11 μM / percent inhibition of PKK mRNA, 0.33 μM: electroporation, approx. 16 hours, relative to untreated control cells
Procedure: Cells were plated at a density of 20,000 cells per well and transfected using electroporation with 0.11 μM, 0.33 μM, 1.00 μM, and 3.00 μM concentrations of antisense oligonucleotide. After a treatment period of approximately 16 hours, RNA was isolated from the cells and PKK mRNA levels were measured by quantitative real-time PCR. Human PKK primer probe set RTS3454 was used to measure mRNA levels. PKK mRNA levels were adjusted according to total RNA content, as measured by RIBOGREEN®. The antisense oligonucleotides were tested in a series of experiments that had similar culture conditions.
The half maximal inhibitory concentration (IC50) of each oligonucleotide is also presented.

[3] = Table 20, HepaRG cells, electroporation with 1,000 nM antisense oligonucleotide, approximately 24 hours, PKK mRNA by RT-PCR (RTS3454), relative to untreated control cells
[4] = Table 21 experiment, HepaRG cells, electroporation with 1,000 nM antisense oligonucleotide, approx. 24 hours, PKK mRNA by RT-PCR (RTS3454), relative to untreated control cells
[5] = Table 22 experiment, HepaRG cells, electroporation with 1,000 nM antisense oligonucleotide, approx. 24 hours, PKK mRNA by RT-PCR (RTS3454), relative to untreated control cells

Row | Substance | % inhibition (human PKK mRNA [1]; HepaRG cells, 1,000 nM antisense oligonucleotide, Table 29) [%] | % inhibition (human PKK mRNA [1]; HepaRG cells, electroporation with 1,000 nM antisense oligonucleotide, approx. 24 hours, PKK mRNA by RT-PCR (RTS3454), relative to untreated control cells, Table 25 experiment) [%] | % inhibition (human PKK mRNA [1]; HepaRG cells, electroporation with 1,000 nM antisense oligonucleotide, approx. 24 hours, PKK mRNA by RT-PCR (RTS3454), relative to untreated control cells, Table 26 experiment) [%] | % inhibition (human PKK mRNA [1]; HepaRG cells, electroporation with 1,000 nM antisense oligonucleotide, approximately 24 hours, primer probe set RTS3454, relative to untreated control cells, experiment of Table 23) [%] | % inhibition (human PKK mRNA [1]; HepaRG cells, electroporation with 1,000 nM antisense oligonucleotide, approximately 24 hours, primer probe set RTS3454, relative to untreated control cells, experiment of Table 24) [%] | % inhibition (human PKK mRNA [1]; PKK mRNA, HepaRG cells, 1,000 nM antisense oligonucleotide, Table 31) [%] | % inhibition (human PKK mRNA [1]; Table 19, HepaRG cells, electroporation with 1,000 nM antisense oligonucleotide, approximately 24 hours, PKK mRNA by RT-PCR (RTS3454), relative to untreated control cells) [%] | % inhibition (human PKK mRNA [1]; [3]) [%] | % inhibition (human PKK mRNA [1]; [4]) [%] | % inhibition (human PKK mRNA [1]; [5]) [%] | % inhibition (human PKK mRNA [1]; Table 27, HepaRG cells, 1,000 nM antisense oligonucleotide, human PKK mRNA) [%] | % inhibition (human PKK mRNA [1]; Table 28, HepaRG cells, 1,000 nM antisense oligonucleotide, human PKK mRNA) [%] | % inhibition (human PKK mRNA [1]; Table 30, human PKK mRNA, HepaRG cells, 1,000 nM antisense oligonucleotide) [%] | IC50 (human PKK mRNA [2]) | percent inhibition of PKK mRNA, 1.00 μM (human PKK mRNA [2]) | percent inhibition of PKK mRNA, 3.00 μM (human PKK mRNA [2]) | percent inhibition of PKK mRNA, 0.11 μM (human PKK mRNA [2]) [%] | percent inhibition of PKK mRNA, 0.33 μM (human PKK mRNA [2]) [%]
1 | 547747 (eT*e[5mC]*kA*d[5mC]*dT*dG*dT*dA*d[5mC]*dT*dA*dG*dT*kT*kT*e[5mC]) [compound 547747] | 64 | 66 | 80 | 83 | 80 | 88 | 95 | 84 | 88 | 91 | 67 | 64 | 64 | 400 nM and 300 nM and 500 nM | 81% and 90% and 72% and 85% | 89% and 92% and 90% and 96% |  | 
2 | 547769 (antisense eT*eT*kG*dG*dA*dG*dG*dT*dG*dA*dG*dT*d[5mC]*kT*k[5mC]*eT) [compound 547769] |  |  |  |  |  |  |  |  | 81 |  |  |  |  | 600 nM | 80% | 96% | 12 | 17
3 | 547807 (eG*e[5mC]*kA*dG*dT*dA*dT*dT*dG*dG*dG*d[5mC]*dA*kT*kT*eT; antisense) [compound 547807] |  |  |  |  |  |  |  |  | 75 |  |  |  |  | 400 nM | 61% | 94% | 26 | 71
4 | 547808 (e[5mC]*eA*kT*d[5mC]*dT*dG*dG*d[5mC]*dA*dG*dT*dA*dT*kT*kG*eG; antisense) [compound 547808] |  |  |  |  |  |  |  |  | 56 |  |  |  |  | 1100 nM | 48% | 71% | 19 | 22
5 | 547824 (e[5mC]*eG*kA*dT*dG*dT*dA*d[5mC]*dT*dT*dT*dT*dG*kG*k[5mC]*eA; antisense) [compound 547824] |  |  |  |  |  |  |  |  | 82 |  |  |  |  |  | 78% |  | 45 | 73
6 | 547835 (e[5mC]*e[5mC]*kA*dG*dA*dA*dA*d[5mC]*dT*dG*d[5mC]*dA*d[5mC]*k[5mC]*kT*eG; antisense) [compound 547835] |  |  |  |  |  |  |  |  | 81 |  |  |  |  | 900 nM | 53% | 79% | 44 | 27
7 | 547843 (antisense e[5mC]*eA*k[5mC]*dT*dT*dA*dT*dT*dT*dG*dA*dT*dG*kA*k[5mC]*e[5mC]) [compound 547843] |  |  |  |  |  |  |  | 83 |  | 83 |  |  |  | 400 nM | 80% | 91% | 0 | 52
